Laboratory results from patent publication US20040110287A1, “Multi-step method for the differentiation of insulin positive, glucose responsive cells” (ES Cell International Pte Ltd., priority 2002, published 2004).

These compounds were tested on islet-like structures (assay: Glucose-stimulated insulin release and insulin content of islet-like structures). Settings: 3 mM or 20 mM glucose, factor added to culture.
Format: cell-based
Protocol: After the complete differentiation protocol described in detail in Example 2, the islet-like structures were cultured in the presence of either 3 mM glucose or 20 mM glucose to assay for glucose-stimulated insulin release. Insulin release and total insulin content were measured using standard methods. Additionally, factors were added to the culture of islet-like structures.
For `CC(C)(COP(=O)(O)OP(=O)(O)OC[C@H]1O[C@@H](n2cnc3c(N)ncnc32)[C@H](O)[C@@H]1OP(=O)(O)O)[C@@H](O)C(=O)NCCC(=O)NCCSC(=O)CC(=O)O` [malonyl CoA, reference compound], the “responsiveness of islet-like structures to high glucose (insulin release)” value (“responsiveness of islet-like structures” for short) was “increased the responsiveness”. `NC(=O)c1cccnc1` [nicotinamide, reference compound] was tested, and the “responsiveness of islet-like structures” value was “increased the responsiveness”. Desert hedgehog was tested, and the “responsiveness of islet-like structures” value was “increased the responsiveness”. For Indian hedgehog, the “responsiveness of islet-like structures” value was “increased the responsiveness”. Sonic hedgehog was tested, and the “responsiveness of islet-like structures” value was “increased the responsiveness”. With exendin-4 [reference compound] the “responsiveness of islet-like structures” value was “increased the responsiveness”. In the case of leptin, the “responsiveness of islet-like structures” value is reported as “increased the responsiveness”.
